Reference: patent publication US20230250108A1, “TETRAHYDROISOQUINOLINE COMPOUNDS AND USE THEREOF” (JIANGSU SIMCERE PHARMACEUTICAL CO., LTD., priority 2020, published 2023)

Assays:
SDMA in Z-138 cells = assay: Inhibitory activity on SDMA in cells (immunofluorescent assay); assay type: cell-based; conditions: Homo sapiens, 48 h, 2 days, read-out: Inhibition of SDMA in cells IC50
Excerpt: Materials and cells: Z-138 cells were purchased from ATCC (USA); IMDM medium and penicillin-streptomycin were purchased from Sigma PLC. (USA); horse serum was purchased from Hyclone (USA); Hoechst antibodies were purchased from Invitrogen (USA); Alexa Fluor 488 goat anti-rabbit IgG antibodies were purchased from Invitrogen (USA); Anti-dimethyl-Arginine symmetric (SYM11) antibodies were purchased from Merck & Co., Inc. (USA); DPBS was purchased from Gibco (USA); Nonfat Dry milk was purchased from Cell Signaling Technology (USA); paraformaldehyde was purchased from Beijing Solarbio Science & Technology Co., Ltd.; 384-well plate and Echo 550 Liquid Handler were purchased from Labcyte Inc. (USA); and an ImageXpress Nano was purchased from Molecular Devices (USA).
Cell culture: Z-138 cells were cultured in an IMDM culture solution containing 10% Horse serum+1% penicillin−streptomycin at 37° C., 5% CO2. Cells in logarithmic growth phase were suitable for the experiment.
Immunofluorescent assay: The effects of the compounds on SDMA in Z-138 cells were detected by using immunofluorescence. The cells were adjusted to the concentration of 1*10^5/mL and 40 μL was inoculated in each well of the 384-well plate (4000/well) and equilibrated for 10-15 minutes at 37° C., 5% CO2. The compound was added into a 384-well plate by using the Echo 550 Liquid Handler with the final concentration of 0-300 nM (initial concentration: 300 nM, 3-fold dilution, for 10 points), and the DMSO content was 0.1%. The cell plate was placed at 37° C., 5% CO2 and incubated for 2 days. 40 μL of 8% paraformaldehyde was added into each well and incubated at room temperature for 30 minutes. The supernatant was discarded, the plate was washed with DPBS, and 40 μL of 0.5% PBST (phosphate buffer with Tween) was added into each well and incubated at room temperature for 60 minutes. The supernatant was discarded, the plate was washed with 0.05% PBST, and 40 μL of a blocking solution (1% Nonfat milk in 0.05% PBST) was added into each well and incubated at room temperature for 60 minutes. The supernatant was discarded, and 20 μL of the primary antibody (SYM11, diluted with a blocking solution at 1:500) was added into each well and maintained at 4° C. overnight. The supernatant was discarded, the plate was washed with 0.05% PBST, 20 μL of the secondary antibody (Alexa Fluor 488 goat anti-rabbit and Hoechst, diluted with a blocking solution at 1:1000 and 1:5000, respectively) was added to each well and incubated at room temperature for 60 minutes. The supernatant was discarded, the plate was washed with 0.05% PBST, and the fluorescent intensity was detected with ImageXpress Nano.

[1] = tested on: Z-138 subcutaneous tumor models; assay: In vivo drug efficacy experiment in mice, Z-138 subcutaneous tumor model
Excerpt: Experimental materials: Z138 cells were purchased from ATCC; IMDM culture solution, penicillin-streptomycin and 0.25% trypsin-EDTA were purchased from Gibco; horse serum and PBS were purchased from Hyclone; and Matrigel was purchased from Corning.
Animal information: CB17-SCID mice (female, 6-7 weeks, body weight: about 14-20 g) were purchased from Shanghai Lingchang Biotechnology Co., Ltd. The mice were fed in SPF environment and each cage position was individually ventilated. All animals had free access to standard certified commercial laboratory food and water.
Cell culture: Human mantle cell lymphoma Z-138 cell lines were cultured in vitro and the culture conditions involve: IMDM (cell culture solution) supplemented with 10% horse serum and 1% penicillin-streptomycin solution, 37° C., 5% CO2 incubator. Conventional digestion treatment with 0.25% trypsin-EDTA digestion solution was carried out twice a week for passage. When the cell saturation was 85%-90%, and the number reached the requirement, the cells were collected and counted.
Cell inoculation: 0.1 ml/(containing 1×10^7) Z-138 cell suspension (PBS Matrigel=1:1) was inoculated subcutaneously on the right back of each mouse. At day 18 post inoculation, when the average tumor volume measured has reached about 125 mm^3, grouping and administration were performed by using the randomized stratification and grouping method based on the tumor volume and animal body weight. PBS was a phosphate buffer free of Ca and Mg ions, and Matrigel was a matrix gel.
Administration: Compound 002 was administered at the doses of 1.5 mg/kg, 5 mg/kg, or 15 mg/kg, PO, twice daily (BID)×3 weeks. 6 mice per group.
The diameter of the tumor was measured with vernier calipers twice a week. The calculation formula of tumor volume was V=0.5a×b2, wherein a and b represented the long and short diameters of the tumor, respectively. The body weights of the mice were weighed twice a week.
The tumor-inhibiting efficacy of the compound was evaluated using tumor growth inhibition (TGI) (%).
TGI (%)=[(1−(average tumor volume at the end of administration in a certain treatment group−average tumor volume at the beginning of administration in the treatment group)/(average tumor volume at the end of administration in the solvent control group−average tumor volume at the beginning of administration in the solvent control group)]×100%.

[2] = Hepatocellular metabolic stability test, human hepatocytes
Excerpt: Experimental materials: Human hepatocytes were purchased from Biopredic; mouse hepatocytes were purchased from BioIVT; acetonitrile and methanol were purchased from Merck & Co., Inc.; AOPI dyes were purchased from Nexcelom; dexamethasone was purchased from NIFDC; DMSO was purchased from Beijing Solarbio Science & Technology Co., Ltd.; DPBS (10×), GlutaMAX™-1 (100×) and recombinant human insulin were purchased form Gibco by Life Technologies; fetal bovine serum was purchased from Corning; formic acid was purchased from DIKMAPURE; Isotonic Percoll was purchased from GE Healthcare; alprazolam was purchased from Supelco; caffeine was purchased from ChromaDex.inc; and HEPES, tolbutamide and Williams' Medium E were purchased from Sigma.
The powder of a test substance was formulated with DMSO into a stock solution with a high concentration, which was diluted to a working solution of 100 μM with acetonitrile prior to use. The final concentration of the test substance was 1 μM.
49.5 mL of Williams'E Medium and 0.5 mL of GlutaMAX were mixed as an incubation media. Hepatocyte thawing media and incubation media were placed in a 37° C. water-bath and pre-heated for at least 15 minutes prior to use. A tube of hepatocytes stored at an ultra-low temperature was taken and the hepatocytes were ensured to be at a frozen state at a low temperature prior to thawing. The hepatocytes were rapidly placed in a 37° C. water-bath and gently shaken until all the ice crystals were dispersed, and then after 70% ethanol was sprayed, the hepatocytes were transferred to a biosafety cabinet. The content of the tube was poured into a centrifugal tube containing 50 mL of thawing media and centrifuged at 100 g for 10 minutes. After centrifugation, the thawing media was aspirated, and a sufficient amount of incubation media was added to obtain a cell suspension with a cell density of about 1.5×10^6 cells/mL. The hepatocytes were counted, and the viable cell density was determined using Cellometer Vision, and the survival rate of the hepatocytes must be higher than 75%. The hepatocyte suspension was diluted by using the incubation media to a viable cell density of 0.5×10^6 viable cells/mL.
247.5 μL of viable cell (human hepatocytes or mouse hepatocytes) suspension or media were transferred into a 96-well deep-well plate, and the deep-well plate was placed in a vortex incubator and pre-heated for 10 minutes. Incubation of all the samples was performed in parallel duplicate. Test substance (2.5 μL, 100 μM) was added into each well to start the reaction and the deep-well plate was placed in the vortex incubator again. The samples were incubated, and 25 μL of the suspension was taken at 0, 15, 30, 60, 90 and 120 minutes, respectively. 125 μL of acetonitrile containing internal standard (100 nM alprazolam, 200 nM caffeine, and 100 nM tolbutamide) was added to terminate the reaction. The mixture was vortexed for 10 minutes and centrifuged at 3220 g, 4° C. for 30 minutes. After centrifugation, 100 μL of the supernatant was transferred into the loading plate and 150 μL of pure water was added and mixed uniformly for LC-MS/MS analysis.
All the data calculation was performed by the Microsoft Excel software. The peak area was detected by extracting the ion chromatogram. The in vitro half-life (t1/2) of the parent drug was detected by performing linear fitting of the natural logarithm of elimination percent of the parent drug and time.
The in vitro half-life (t1/2) was calculated by means of the slope:

[3] = tested doses 1.5, 5, 15 mg/kg BID

CCN1CCN(C[C@@H](O)[C@@H]2Cc3ccccc3CN2)C(=O)c2ccc(C(=O)N3CCC4(CC3)CC(OC)C4)cc21.Cl [Compound 002, 1-ethyl-4-((R)-2-hydroxy-2-((S)-1,2,3,4-tetrahydroisoquinolin-3-yl)ethyl)-8-(2-methoxy-7-azaspiro[3.5]nonane-7-carbonyl)-1,2,3,4-tetrahydro-5H-benzo[e][1,4]diazepin-5-one hydrochloride]
IC50 (SDMA in Z-138 cells): 1.4 nM
TGI ([1]; 1.5 mg/kg PO BID x 3 weeks): 36.0%
Average tumor volume ([1]; 1.5 mg/kg PO BID, 0 Day): 125 mm^3
Average tumor volume ([1]; 1.5 mg/kg PO BID, 4 Day): 151 mm^3
Average tumor volume ([1]; 1.5 mg/kg PO BID, 7 Day): 203 mm^3
Average tumor volume ([1]; 1.5 mg/kg PO BID, 11 Day): 374 mm^3
Average tumor volume ([1]; 1.5 mg/kg PO BID, 14 Day): 436 mm^3
Average tumor volume ([1]; 1.5 mg/kg PO BID, 18 Day): 567 mm^3
Average tumor volume ([1]; 1.5 mg/kg PO BID, 21 Day): 689 mm^3
TGI ([1]; 5 mg/kg PO BID x 3 weeks): 47.8%
Average tumor volume ([1]; 5 mg/kg PO BID, 0 Day): 124 mm^3
Average tumor volume ([1]; 5 mg/kg PO BID, 4 Day): 157 mm^3
Average tumor volume ([1]; 5 mg/kg PO BID, 7 Day): 197 mm^3
Average tumor volume ([1]; 5 mg/kg PO BID, 11 Day): 281 mm^3
Average tumor volume ([1]; 5 mg/kg PO BID, 14 Day): 310 mm^3
Average tumor volume ([1]; 5 mg/kg PO BID, 18 Day): 452 mm^3
Average tumor volume ([1]; 5 mg/kg PO BID, 21 Day): 585 mm^3
TGI ([1]; 15 mg/kg PO BID x 3 weeks): 112.5%
Average tumor volume ([1]; 15 mg/kg PO BID, 0 Day): 126 mm^3
Average tumor volume ([1]; 15 mg/kg PO BID, 4 Day): 140 mm^3
Average tumor volume ([1]; 15 mg/kg PO BID, 7 Day): 113 mm^3
Average tumor volume ([1]; 15 mg/kg PO BID, 11 Day): 59 mm^3
Average tumor volume ([1]; 15 mg/kg PO BID, 14 Day): 34 mm^3
Average tumor volume ([1]; 15 mg/kg PO BID, 18 Day): 18 mm^3
Average tumor volume ([1]; 15 mg/kg PO BID, 21 Day): 16 mm^3
Death in mice [1, 3]: nor did they cause any death in mice
Effect on body weights of the mice [1, 3]: do not significantly affect the body weights of the mice
Tolerability [1, 3]: the mice can tolerate the doses
Effect on tumor growth ([1]; twice daily at 1.5 mg/kg, 5 mg/kg and 15 mg/kg): significant inhibitory effects on tumor growth
Effect on tumor size ([1]; twice daily at 15 mg/kg): effect of shrinking tumor
half-life at 1 μM [2]: 4.21 h
